Here are results for one molecule from PMC8999638, “Identification of Entry Inhibitors against Delta and Omicron Variants of SARS-CoV-2” (International Journal of Molecular Sciences, 2022).

For data set [1], the target named is RBD-ACE2 attachment (RBD of viral spike protein and ACE2 receptor) (Severe acute respiratory syndrome coronavirus 2, UniProt P0DTC2). The experiment in a line: cell-based. Details: species or system SARS-CoV-2; human.
For data set [2], the system named is NanoBiT. Description: Negative screening HiBiT assay (NanoBiT activity). Type of data set: cell-based. Background: HiBiT is a short tag that completes a luciferase, so light tracks the accessible tagged protein.
Data set [3] concerns spike-based pseudovirus (wild type) on SmBiT-ACE2 HeLa cells. The experiment in a line: microbe, parasite or virus in culture. Type of data set: cell-based, SARS-CoV-2. The conditions noted are these: Pseudovirus, HeLa.
Data set [4] has as its system SARS-CoV-2. The experiment in a line: microbe, parasite or virus in culture. Type of data set: cell-based. The conditions noted are these: Severe acute respiratory syndrome coronavirus 2, Vero C1008, 120 h, read-out: EC50 SARS-CoV-2 PRNT.
Data set [5] deals with VERO E6 cells. The note with it: VeroE6 cells.
The nature of data set [6]: in vitro. The note with it: African green monkey, VeroE6 CC50, VERO E6 cells, CellTiter-Glo. A general note: Cellular ATP, detected with luciferase, serves as a proxy for viable cell number.

pEC50: −log10 of the molar value. Where two headings read alike, the source gives them in different places.

For `Cc1cc(C#N)cc(C)c1Oc1nc(Nc2ccc(C#N)cc2)nc(N)c1Br` [Etravirine], the pEC50 in data set [1] was 5.64; in data set [3] (read-out: EC50 Pseudovirus Wild Type), 8.22; in data set [3] (read-out: EC50 pseudovirus neutralization assay), 8.24; in data set [4], 5.11. In addition, the “Positive Screening RBD Attachment Assay Dose Response” value in data set [1] is on record as “Yes”. In addition, the inhibition at 20 µM in data set [1] (HeLa, read-out: Positive Screening RBD Attachment Assay % Inhibition (20 μM)) is above 70%. The inhibition at 100 µM in data set [1] (HeLa, read-out: Positive Screening RBD Attachment Assay % Inhibition (100 μM)) was determined as 90%. The “Negative Screening HiBiT Assay % Inhibition (20 μM)” value in data set [2] (20 μM drug) stood at 0%. In data set [2] (100 μM drug), the “Negative Screening HiBiT Assay % Inhibition (100 μM)” value was 31%. In addition, in data set [2] (>70% inhibition in 100 μM, then including >35% inhibition at 20 μM), the “Negative Screening HiBiT Assay INHIBIT NanoBiT” value is reported as “No”. In data set [5], the “Cytotoxicity to VeroE6 cells” value was “not toxic”. The CC50 in data set [6] is above 100 µM.

As usually defined, the pEC50 is the EC50 on a negative log10 scale, so that one unit is a factor of ten. In general, inhibition refers to the relative decrease from the control value, in per cent. One may read the CC50 as the concentration giving 50% cytotoxicity. Low readings indicate greater toxicity to the cells, high ones lower toxicity to the cells.
